Like-named read-outs stand apart in the source and are kept apart here.

What all share (assay): TGFα-shedding assay-based GPCR screening with chimeric Gα subunit proteins
What all share (assay type): cell-based
What all share (conditions): 10µM, Favipiravir 100μM

Assay [1] has as its target T1, 348 GPCRs (Homo sapiens, UniProt O00270).
T1 construct: expressed in transfected cells; host or cells: HEK293A

Assay [2] concerns the target T2, 348 GPCRs (Homo sapiens, UniProt Q969F8).
T2 construct: expressed in transfected cells; host or cells: HEK293A

The target in assay [3] is T3, 348 GPCRs (Homo sapiens, UniProt P48145).
T3 construct: expressed in transfected cells; host or cells: HEK293A
T3 sequence (P48145 1-328): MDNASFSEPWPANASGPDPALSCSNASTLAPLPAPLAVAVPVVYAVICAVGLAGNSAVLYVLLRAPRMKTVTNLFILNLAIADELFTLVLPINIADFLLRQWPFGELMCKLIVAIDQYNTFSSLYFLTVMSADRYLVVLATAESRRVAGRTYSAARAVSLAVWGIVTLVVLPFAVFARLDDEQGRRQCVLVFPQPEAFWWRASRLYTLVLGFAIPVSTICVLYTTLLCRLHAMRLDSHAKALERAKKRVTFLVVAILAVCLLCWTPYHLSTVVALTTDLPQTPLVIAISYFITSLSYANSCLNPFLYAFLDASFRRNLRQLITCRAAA

For assay [4], the target named is T4, 348 GPCRs (Homo sapiens, UniProt P21462).
T4 sequence (P21462 1-350): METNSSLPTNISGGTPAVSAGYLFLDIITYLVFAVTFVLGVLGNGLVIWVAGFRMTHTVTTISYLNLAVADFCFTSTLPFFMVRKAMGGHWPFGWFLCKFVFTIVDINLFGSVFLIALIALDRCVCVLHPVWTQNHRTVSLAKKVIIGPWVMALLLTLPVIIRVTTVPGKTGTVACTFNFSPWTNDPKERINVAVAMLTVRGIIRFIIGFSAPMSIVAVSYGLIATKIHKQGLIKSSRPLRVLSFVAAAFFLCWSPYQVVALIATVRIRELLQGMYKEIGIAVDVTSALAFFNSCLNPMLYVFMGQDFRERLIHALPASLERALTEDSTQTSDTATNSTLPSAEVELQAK

Assay [5] concerns the target T5, 348 GPCRs (Homo sapiens, UniProt Q9H255).
T5 construct: expressed in transfected cells; host or cells: HEK293A
T5 sequence (Q9H255 1-320): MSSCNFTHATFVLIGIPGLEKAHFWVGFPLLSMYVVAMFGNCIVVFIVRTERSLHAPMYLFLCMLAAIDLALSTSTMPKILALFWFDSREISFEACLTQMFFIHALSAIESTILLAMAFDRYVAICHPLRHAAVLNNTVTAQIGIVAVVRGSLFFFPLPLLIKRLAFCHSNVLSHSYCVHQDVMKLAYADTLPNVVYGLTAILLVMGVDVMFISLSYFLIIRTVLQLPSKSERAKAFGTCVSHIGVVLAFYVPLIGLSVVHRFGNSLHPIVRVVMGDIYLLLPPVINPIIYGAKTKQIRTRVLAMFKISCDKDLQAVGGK

Assay [6] addresses 348 GPCRs (Homo sapiens, UniProt P21918).
Assay [7] deals with T6, 348 GPCRs (Homo sapiens, UniProt Q8TDV0).
T6 construct: expressed in transfected cells; host or cells: HEK293A
T6 sequence (Q8TDV0 1-419): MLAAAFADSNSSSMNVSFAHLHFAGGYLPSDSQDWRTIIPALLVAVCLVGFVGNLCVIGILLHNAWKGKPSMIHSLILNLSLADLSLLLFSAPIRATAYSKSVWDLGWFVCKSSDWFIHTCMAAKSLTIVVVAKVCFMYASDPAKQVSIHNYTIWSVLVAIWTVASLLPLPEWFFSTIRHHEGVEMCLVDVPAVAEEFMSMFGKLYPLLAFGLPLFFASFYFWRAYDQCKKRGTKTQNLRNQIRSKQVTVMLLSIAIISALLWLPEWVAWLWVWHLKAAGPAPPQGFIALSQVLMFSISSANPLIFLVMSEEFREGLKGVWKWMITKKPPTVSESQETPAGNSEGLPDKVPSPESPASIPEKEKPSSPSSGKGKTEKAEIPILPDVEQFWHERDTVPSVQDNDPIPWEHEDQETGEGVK

Assay [8] addresses T7, 348 GPCRs (Homo sapiens, UniProt O60883).
T7 construct: expressed in transfected cells; host or cells: HEK293A
T7 sequence (O60883 26-481): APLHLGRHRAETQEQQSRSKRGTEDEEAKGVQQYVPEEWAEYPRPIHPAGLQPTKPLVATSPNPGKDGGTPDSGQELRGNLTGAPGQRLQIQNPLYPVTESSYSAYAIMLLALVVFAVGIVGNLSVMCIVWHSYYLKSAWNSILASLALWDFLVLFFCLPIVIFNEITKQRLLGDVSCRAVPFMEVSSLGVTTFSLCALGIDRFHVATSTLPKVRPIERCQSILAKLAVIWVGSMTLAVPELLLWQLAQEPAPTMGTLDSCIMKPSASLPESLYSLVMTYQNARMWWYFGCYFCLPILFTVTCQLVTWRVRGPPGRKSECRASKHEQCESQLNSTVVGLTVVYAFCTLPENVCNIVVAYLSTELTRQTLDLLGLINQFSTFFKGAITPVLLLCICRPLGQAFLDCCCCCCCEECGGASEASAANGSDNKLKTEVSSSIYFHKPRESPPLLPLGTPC

[9] abbreviates: GPR31 (G Protein-Coupled Receptor 31), read-out: % GPCR activation compared to TPA.
The mark [10] stands for this setting: KISSPEPTIN-R (KISS1 Receptor), read-out: % GPCR activation compared to TPA.
[11] abbreviates: NPBWR1 (neuropeptides B and W receptor 1), read-out: % GPCR activation compared to TPA.
Where [12] appears, read: FPR1 (formyl peptide receptor 1), read-out: % GPCR activation compared to TPA.
[13] abbreviates: OR51E2 (olfactory receptor, family 51, subfamily E, member 2), read-out: % GPCR activation compared to TPA.
[14] abbreviates: D5 (dopamine receptor D5), read-out: % GPCR activation compared to TPA.
Setting [15] is: GPR151 (G Protein-Coupled Receptor 151), read-out: % GPCR activation compared to TPA.
[16] abbreviates: GPR37L1 (G Protein-Coupled Receptor 37 Like 1), read-out: % GPCR activation compared to TPA.
Setting [17] is: read-out: % GPCR activation compared to TPA, GPR31 (G Protein-Coupled Receptor 31).
Setting [18] is: read-out: % GPCR activation compared to TPA, KISSPEPTIN-R (KISS1 Receptor).
Setting [19] is: read-out: % GPCR activation compared to TPA, NPBWR1 (neuropeptides B and W receptor 1).
Where [20] appears, read: read-out: % GPCR activation compared to TPA, FPR1 (formyl peptide receptor 1).
Where [21] appears, read: read-out: % GPCR activation compared to TPA, OR51E2 (olfactory receptor, family 51, subfamily E, member 2).
[22] abbreviates: read-out: % GPCR activation compared to TPA, D5 (dopamine receptor D5).
Setting [23] is: read-out: % GPCR activation compared to TPA, GPR151 (G Protein-Coupled Receptor 151).
The mark [24] stands for this setting: read-out: % GPCR activation compared to TPA, GPR37L1 (G Protein-Coupled Receptor 37 Like 1).

T1 sequence (O00270 whole entry): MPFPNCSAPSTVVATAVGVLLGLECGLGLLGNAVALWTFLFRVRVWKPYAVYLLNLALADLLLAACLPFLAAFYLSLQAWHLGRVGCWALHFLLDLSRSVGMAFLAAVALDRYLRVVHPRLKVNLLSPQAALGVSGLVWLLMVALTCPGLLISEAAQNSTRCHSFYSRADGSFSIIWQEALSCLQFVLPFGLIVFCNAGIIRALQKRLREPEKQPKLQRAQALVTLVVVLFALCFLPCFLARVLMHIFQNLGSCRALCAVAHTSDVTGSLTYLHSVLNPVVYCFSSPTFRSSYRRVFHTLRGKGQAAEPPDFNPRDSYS
Sequence of 348 GPCRs (Homo sapiens, UniProt P21918) (P21918 whole entry): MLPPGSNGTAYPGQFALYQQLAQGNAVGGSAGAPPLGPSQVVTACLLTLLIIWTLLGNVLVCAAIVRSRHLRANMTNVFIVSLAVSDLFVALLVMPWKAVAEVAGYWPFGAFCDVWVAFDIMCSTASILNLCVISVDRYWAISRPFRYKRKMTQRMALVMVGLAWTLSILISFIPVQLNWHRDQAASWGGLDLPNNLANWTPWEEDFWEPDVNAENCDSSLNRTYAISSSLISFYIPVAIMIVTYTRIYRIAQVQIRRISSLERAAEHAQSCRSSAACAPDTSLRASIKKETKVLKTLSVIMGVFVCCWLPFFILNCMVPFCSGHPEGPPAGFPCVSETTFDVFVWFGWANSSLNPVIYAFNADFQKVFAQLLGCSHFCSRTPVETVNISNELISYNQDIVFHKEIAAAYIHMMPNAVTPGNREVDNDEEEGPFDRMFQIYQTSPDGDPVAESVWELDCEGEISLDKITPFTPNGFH
T2 sequence (Q969F8 whole entry): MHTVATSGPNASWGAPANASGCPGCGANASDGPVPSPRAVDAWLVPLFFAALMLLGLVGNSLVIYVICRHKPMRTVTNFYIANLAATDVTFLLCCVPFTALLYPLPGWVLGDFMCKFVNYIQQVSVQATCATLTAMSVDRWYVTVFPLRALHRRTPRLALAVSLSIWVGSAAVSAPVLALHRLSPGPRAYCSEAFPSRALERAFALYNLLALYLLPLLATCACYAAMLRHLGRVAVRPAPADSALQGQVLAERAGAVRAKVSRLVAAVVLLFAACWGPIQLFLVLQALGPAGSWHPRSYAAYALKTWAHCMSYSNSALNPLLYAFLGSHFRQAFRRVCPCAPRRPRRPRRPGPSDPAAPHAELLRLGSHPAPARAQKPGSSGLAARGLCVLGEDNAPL

`CC(C)C(=O)OC[C@H]1O[C@@H](n2ccc(NO)nc2=O)[C@H](O)[C@@H]1O` [molnupiravir]: the activation at 100 µM at 348 GPCRs [1] (setting [9]) was -1.71%; at 348 GPCRs [2] (setting [10]), -4.04%; on 348 GPCRs [4] (setting [12]) it was -0.204%; on 348 GPCRs [6] (setting [14]), -1.18%. The activation at 10 µM on 348 GPCRs [3] (setting [11]) is -7.02%; on 348 GPCRs [5] (setting [13]), -0.989%; at 348 GPCRs [7] (setting [15]) it was -2.68%; on 348 GPCRs [8] (setting [16]), -1.63%.
As to `CC(C)OC(=O)[C@H](C)N[P@](=O)(OC[C@H]1O[C@@H](n2ccc(=O)[nH]c2=O)[C@](C)(F)[C@@H]1O)Oc1ccccc1` [sofosbuvir], the activation at 100 µM is -0.455% on 348 GPCRs [1] (setting [17]), -1.38% on 348 GPCRs [2] (setting [18]), -0.986% at 348 GPCRs [4] (setting [20]) and -1.22% on 348 GPCRs [6] (setting [22]). The activation at 10 µM on 348 GPCRs [3] (setting [19]) was -6.08%; at 348 GPCRs [5] (setting [21]), -1.75%; on 348 GPCRs [7] (setting [23]) it was -2.06%; at 348 GPCRs [8] (setting [24]), -1.91%.
Consider `N#C[C@@]1(c2ccc3c(N)ncnn23)O[C@H](CO)[C@@H](O)[C@H]1O` [GS441524], for which the activation at 100 µM at 348 GPCRs [1] (setting [9]) was -1.59%; on 348 GPCRs [2] (setting [10]), -2.31%; at 348 GPCRs [4] (setting [12]), -4.1%; on 348 GPCRs [6] (setting [14]), 1.11%. The activation at 10 µM on 348 GPCRs [3] (setting [11]) is -1.75%; on 348 GPCRs [5] (setting [13]), 0.751%; at 348 GPCRs [7] (setting [15]), -2.28%; at 348 GPCRs [8] (setting [16]), -2.03%.
Turning to `NC(=O)c1nc(F)cnc1O` [favipiravir, 6-fluoro-3-hydroxy-2-pyrazinecarboxamide], the activation at 100 µM on 348 GPCRs [1] (setting [9]) is -1.25%; at 348 GPCRs [2] (setting [10]), -3.52%; on 348 GPCRs [4] (setting [12]), -5.47%; at 348 GPCRs [6] (setting [14]) it was 3.39%. Also, the activation at 10 µM at 348 GPCRs [3] (setting [11]) is -3.5%; on 348 GPCRs [5] (setting [13]) it was -0.415%; at 348 GPCRs [7] (setting [15]), -0.974%; at 348 GPCRs [8] (setting [16]), -2.32%.
On to `CCC(CC)COC(=O)[C@H](C)N[P@](=O)(OC[C@H]1O[C@@](C#N)(c2ccc3c(N)ncnn23)[C@H](O)[C@@H]1O)Oc1ccccc1` [remdesivir], for which the activation at 100 µM at 348 GPCRs [1] (setting [17]) was -1.64%; on 348 GPCRs [2] (setting [18]), -1.75%; at 348 GPCRs [4] (setting [20]), -4.31%; on 348 GPCRs [6] (setting [22]), 7.06%. The activation at 10 µM is -1.26% on 348 GPCRs [3] (setting [19]), 0.358% at 348 GPCRs [5] (setting [21]), -3.65% on 348 GPCRs [7] (setting [23]) and -2.18% at 348 GPCRs [8] (setting [24]).

Values taken from PMC10175918 (Communications Biology, 2023).
